This test deals with Clonic Seizures Caused by Pentylenetetrazole. The test is described as follows: Protection against clonic seizures caused by pentylenetetrazole in rats. Type of test: in vivo. The conditions noted are these: oral; for ED50: Rattus norvegicus, 2% starch vehicle, groups of at least 5 rats, pentylenetetrazole 21 to 23 mg/kg i.v. at estimated time of peak effect, protection of 50% of animals (Litchfield and Wilcoxon), read-out: Median Effective Oral Dose ED50 (protection against clonic seizures caused by pentylenetetrazole); for effectiveness as anxiolytic agent relative to the respective dextrorotatory and racemic forms of the desmethyl prior art compound (Compounds 3 and 4): rats, from ED50 table. On the procedure: The anti-anxiety properties of the active components of the present invention have been established in a test which indicates anxiolytic activity by a measure of protection from convulsions resulting from the administration of pentylenetetrazol. Graded dose levels of the dextro and racemic forms of the compound 1,2,3,11a-tetrahydro-10-mthyl-5H-pyrrolo[2,1-c] [1,4]benzodiazepin-5,11(10H)-dione are administered orally, in a 2% starch vehicle, to groups of at least 5 rats. At the estimated time of peak effect, the rats are treated intravenously with pentylenetetrazole at a dose of 21 to 23 mg./kg. of body weight. This dose is estimated to cause clonic seizures in 99% of unprotected rats. The effective dose of the test compound for protection of 50% of the animals is calculated by the method of J. T. Litchfield and F. Wilcoxon, Journal of Pharmacology and Experimental Therapeutics, 96, 99 (1949). The results are given in the table which follows in comparison with Librium (chlordiazepoxide), Valium (diazepam) and the dextro and racemic forms of 1,2,3,11 a-tetrahydro-5H-pyrrolo[2,1-c] [1,4]benzodiazepin-5,11(10H)-dione (U.S. Pat. No. 3,732,212) all of which were tested in exactly the same manner. It has been reported [R. T. Hill and D. R. Tedeschi, "Animal Testing and Screening Procedures in Evaluating Psychotropic Drugs" in An Introduction to Psychopharmacology, Eds. R. R. Rech and K. E. Moore, Raven Press, New York, pp. 237-288 (1971) that there is a high degree of correlation between antagonism of pentylenetetrazole seizures in rats and antianxiety effects in higher warm-blooded animals.

For the compound `CNC1=Nc2ccc(Cl)cc2C(c2ccccc2)=[N+]([O-])C1` [Compound 5, chlordiazepoxide], the 50% effective dose (ED50) (commonly the midpoint of the dose-response relation) was 2.5 mg/kg. Still for that read-out and setting: for `O=C1Nc2ccccc2C(=O)N2CCCC12` (racemic) [Compound 4, Racemic-1,2,3,11a-tetrahydro-5H-pyrrolo[2,1-c]-[1,4]benzodiazepin-5,11(10H)-dione] the value was 70 mg/kg; for `CN1C(=O)CN=C(c2ccccc2)c2cc(Cl)ccc21` [Compound 6, diazepam], 1.8 mg/kg.

`CN1C(=O)[C@@H]2CCCN2C(=O)c2ccccc21` [Compound 1, Dextro-1,2,3,11a-tetrahydro-10-methyl-5H-pyrrolo[2,1-c][1,4]benzodiazepin-5,11(10H)-dione]: the ED50 is 10 mg/kg; the “effectiveness as anxiolytic agent relative to the respective dextrorotatory and racemic forms of the desmethyl prior art compound (Compounds 3 and 4)” value is “far more effective”.

With `CN1C(=O)C2CCCN2C(=O)c2ccccc21` (racemic) [Compound 2, Racemic-1,2,3,11a-tetrahydro-10-methyl-5H-pyrrolo[2,1-c][1,4]benzodiazepin-5,11(10H)-dione], the median effective dose (ED50) is 20 mg/kg; the “effectiveness as anxiolytic agent relative to the respective dextrorotatory and racemic forms of the desmethyl prior art compound (Compounds 3 and 4)” value is given as “far more effective”.

`O=C1Nc2ccccc2C(=O)N2CCC[C@@H]12` [Compound 3, Dextro-1,2,3,11a-tetrahydro-5H-pyrrolo[2,1-c]-[1,4]-benzodiazepin-5,11(10H)-dione]: the median effective dose (ED50) was 35 mg/kg.

The values above are taken from patent US3968230A, “Compositions containing benzodiazepindiones and method of use” (American Cyanamid Company, priority 1975, dated 1976).
